Measured values from patent US10786522B2, “Compositions that include anthocyanidins and methods of use” (Maqui NewLife S.A., priority 2009, dated 2020).
Marks after values point to notes of the source that are not given here.

Legend:
Human T cells [1] = assay: INF-γ production in freshly isolated human T cells (ELISA); format: cell-based; details: 48 hrs
Procedure: (§1) The effect of delphinidin on IL-2 and INF-γ production was also assayed on freshly isolated human T cells. Human T cells were isolated from blood of healthy volunteers using Lymphoprep reagent. T cells (1×10^6) in RMPI medium were incubated for 48 hrs at 37° C., in 5% CO2 in the presence of a vehicle control solution; 50 μM delphinidin; 50 μM delphinidin+1 μM BTP-2; 50 μM delphinidin+5 μM BTP-2; 50 μM delphinidin+10 μM BTP-2; 1 μM BTP-2; 5 μM. BTP-2; or 10 μM BTP-2. Then the supernatants were collected and analyzed using commercial ELISA kit (Becton Dickinson, USA) to measure IL-2 and INF-γ production according to the supplier's directions.

Human T cells [2] = assay: IL-2 production in freshly isolated human T cells (ELISA); format: cell-based; details: Table 7, 48 hrs
Procedure: as §1
We evaluated the effect of a combination of delphinidin and andandrographolide on IL-2 production in both freshly harvested human T cells and the Jurkat cell line. Andrographolide was prepared according to the method described in Example 4. Human T cells were isolated from blood of healthy volunteers using Lymphoprep reagent. T cells (1×10^6) in RMPI medium were incubated for 48 hrs at 37° C., in 5% CO2 in the presence of a vehicle control solution; 5 nM andrographolide; 50 μM delphinidin; or 5 nM andrographolide plus 50 μM delphinidin. Then the supernatants were collected and analyzed using commercial ELISA kit (Becton Dickinson, USA) to measure IL-2 production according to the supplier's directions.

Jurkat T cells [3] = assay: Calcium entry (SOCE) in Jurkat T cells after addition of CaCl2; format: cell-based
Procedure: To measure calcium entry after 200 seconds, when the levels of calcium returned to the baseline, 0.9 mM of CaCl2 was added, and the fluxes of Ca^2+ were measured as ratio of excitation ratio at 340 and 380 nm, and emission at 509 nm in a spectrofluorimeter during 150 seconds.
4×10^6 FURA 2-AM-loaded Jurkat T cells were incubated in HBSS calcium free medium. The cells were incubated in 50 uM delphinidin or 50 uM delphinidin plus 10 μM BTP-2 and the fluxes of Ca^2+ were measured as ratio of excitation at 340 and 380 nm, and emission at 509 nm, at 37° C. in a spectrofluorimeter (LS55, PerkinElmer).

Sprague Dawley rats = assay: Acute plantar inflammation model (carragenin) in rats; format: in vivo, rat; details: 1% carragenin, 6 hrs; anthocyanidins 35 mg/kg, diclofenac 2 mg/kg
Procedure: We assayed the effect of anthocyanidins on inflammation in vivo in an acute plantar inflammation model. Inflammation was induced in Sprague Dawley rats (200 g) using 1% carragenin (Sigma-Aldrich). The animals were treated with 35 mg/kg of anthocyanidins rich in […] (prepared according to the method descirbed in Example 1) or with diclofenac (2 mg/kg). The diameter of the treated legs was measured with a digital caliper over 6 hrs.

PPAR-γ = assay: PPAR-γ-Luc reporter assay in HL-60 cells; format: cell-based, Human; details: control substances, 12 h, concentration not given
Procedure: We examined the effect of delphindin-rich anthocyanidins on PPAR-γ activation. HL-60 cells in IMDM medium were transfected with the reporter vectors PPAR-γ-Luc (5 μg) (Panomics) and TK-RL (1 μg) (Promega) using Fugene 6 reagent (Roche), and cultured for 24 hr. Then, the cells were incubated for 12 h in 0.175, 1.75, or 17.5 μg/ml of delphindin-rich anthocyanidins, phorbol myristate acetate (PMA), 15-deoxi-d 12,14-prostaglandin J2 (PGj2), or tumor necrosis factor alpha (TNFα) as controls. Luciferase activity was measured using the Dual-Luciferase Reporter Assay kit (DLR) from Promega in a luminometer (Luminoskan).

Jurkat T cells [4] = assay: Calcium release in Jurkat T cells in HBSS calcium free medium; format: cell-based; details: 50 or 100 uM U73122 for 10 minutes prior to 50 uM delphinidin
Procedure: To measure calcium release, 4×10^6 FURA 2-AM-loaded Jurkat T cells were incubated in HBSS calcium free medium as decribed in Example 6. The cells were incubated in 50 uM delphinidin, or in 50 uM delphinidin and 10 μM N-[4-[3,5-bis(trifluoromethyl)-1H-pyrazol-1-yl]phenyl]-4-methyl-1,2,3-thiadiazole-5-carboxamide (BTP-2, a Store-Operated Calcium Entry (SOCE) inhibitor). The release of Ca^2+ was measured as ratio of excitation at 340 and 380 nm, and emission at 509 nm, for 200 seconds, at 37° C., in a spectrofluorimeter (LS55, PerkinElmer).
4×10^6 FURA 2-AM-loaded Jurkat T cells were incubated in HBSS calcium free medium. The cells were then incubated in 50 uM delphinidin and the fluxes of Ca^2+ were measured as ratio of excitation at 340 and 380 nm, and emission at 509 nm, at 37° C. in a spectrofluorimeter (LS55, PerkinElmer).
4×10^6 FURA 2-AM-loaded Jurkat T cells were incubated in HBSS calcium free medium. The cells were then treated with vehicle alone or 50 or 100 uM U73122 for 10 minutes prior to incubation in 50 uM delphinidin. Ca^2+ flux was measured as ratio of excitation at 340 and 380 nm, and emission at 509 nm, at 37° C. in a spectrofluorimeter (LS55, PerkinElmer).

[5] = 1 μM BTP-2, alone or with 50 μM delphinidin
[6] = 5 μM BTP-2, alone or with 50 μM delphinidin
[7] = 10 μM BTP-2, alone or with 50 μM delphinidin

## Cc1nnsc1C(=O)Nc1ccc(-n2nc(C(F)(F)F)cc2C(F)(F)F)cc1 [BTP-2, N-[4-[3,5-bis(trifluoromethyl)-1H-pyrazol-1-yl]phenyl]-4-methyl-1,2,3-thiadiazole-5-carboxamide]
Human T cells [1]; [5]
  Average INF-γ production: 240 pg/mL
  Percentage vs. control (INF-γ): 64.9%
Human T cells [1]; [6]
  Average INF-γ production: 390 pg/mL
  Percentage vs. control (INF-γ): 105.4%
Human T cells [1]; [7]
  Average INF-γ production: 140 pg/mL
  Percentage vs. control (INF-γ): 37.8%
Human T cells [2]; [5]
  Average IL-2 production: 0 pg/mL
Human T cells [2]; [6]
  Average IL-2 production: 0 pg/mL
Human T cells [2]; [7]
  Average IL-2 production: 0 pg/mL
Jurkat T cells [3]; delphinidin 50 μM plus BTP-2 10 μM
  delphinidin-induced calcium influx in the presence of inhibitor (FIG. 2A, 2B): reduced
Jurkat T cells [3]; delphinidin 50 μM, BTP-2 10 μM
  effect on calcium entry and release, result in words: inhibited the entry, but not the release

## O=C(O)Cc1ccccc1Nc1c(Cl)cccc1Cl [Diclofenac, diclofenac]
Sprague Dawley rats
  Average ABC0-6 (area under the curve of the diameter of the treated legs): 12.5** mm*hr
  Decrease percentage compared to control (ABC0-6): 37.5%

## CCCCC/C=C/C=C1/C(=O)C=C[C@@H]1C/C=C\CCCC(=O)O [PGj2, 15-deoxi-d 12,14-prostaglandin J2]
PPAR-γ
  Average percentage activity of control [PPAR-γ-Luc/TK-RL] ± SD: 256.8 ± 126.9%

## COc1ccc2c(c1)CC[C@@H]1[C@@H]2CC[C@]2(C)[C@@H](NCCCCCCN3C(=O)C=CC3=O)CC[C@@H]12 [U73122, reference compound]
Jurkat T cells [4]
  delphinidin induced calcium flux after pretreatment (FIG. 3): dose-dependent reduction
